From US9987327B2, “Methods for treating myocardial infarction comprising administering sonic hedgehog” (INSERM (INSTITUT NATIONAL DE LA SANTE ET DE EA RECHERCHE …, priority 2013, dated 2018)
“Also recorded” adds a separate entry of the source.

Columns and labels:
rats = assay: Telemetric ECG, QTc interval before and 6 hours after i.v. injection; assay type: in vivo, rat; conditions: given with Shh
Experimental: (§1) Rats were implanted with DSI PhysioTel™ Transmitter (CTA-F40, Data Sciences International, Saint-Paul, Minn., USA), fifteen days before starting experiments. After recovery, ECGs were recorded by using a signal transmitter-receiver (RPC-1; DSI) connected to a data acquisition system (IOX2; EMKA Technologies). The data were collected continuously at a sampling rate of 1,000 Hz. Thus, ECGs were recorded in rats before and 6 hours after i.v. injection of Shh, Shh and hexamethonium, MPs, Shh and cyclopamine, Shh and glibenclamide. ECGs were also monitored 24 h before ischemia, during ischemia and 24 h after reperfusion. Continuous digital recordings were analyzed offline by using the software ECG-auto (ver 1.5.12.22, EMKA Technologies). ECG signals were digitally filtered between 0.1 and 1,000 Hz. The heart rate and QT interval were measured. The QT interval was defined as the time between the first deviation from an isoelectric PR interval until the return of the ventricular repolarisation to the isoelectric TP baseline from lead II ECGs. The QT interval is dependent on the heart rate, therefore, QT interval should be corrected to take into account potential changes in RR interval. The QT correction was performed according to the Bazett's: formula: […]
where QTB is the QT interval corrected for heart rate, and RR is the interval from the onset of one QRS complex to the onset of the next QRS complex.

[1] = test system: rat ventricular cardiomyocytes; assay: Nitric oxide (NO) measurement, DAF fluorescence in cardiomyocytes; assay type: cell-based
[2] = test system: rat ventricular cardiomyocytes; assay: Ca2+ transient and cell shortening (sarcomere length, indo-1) under field stimulation; assay type: cell-based; conditions: co-incubation; for effect on reduction of cell shortening and Ca2+ transient amplitude induced by N-Shh: Ccl 30 μM, LY 25 μM, L-NNA 100 μM
[3] = test system: rat model of ischemia reperfusion; assay: ECG (QTc, ventricular arrhythmias) after 30 min ischemia and 24 h reperfusion; assay type: in vivo
Experimental: as §1, with “ECGs.” for “ECGs. The QT interval is dependent on the heart rate, therefore, QT interval should be corrected to take into account potential changes in RR interval. The QT correction was performed according to the Bazett's: formula:”
The rats were subjected to 30 min ischemia followed by reperfusion. The reperfusion injuries were histologically evaluated at 24 h after reperfusion by measuring the infarcted area relative to the area at risk (FIG. 9). […]

[4] = test system: rat model of ischemia reperfusion; assay: Infarct size (infarcted area relative to area at risk) 24 h after reperfusion; assay type: in vivo; conditions: cyclopamine with N-Shh
Experimental: The rats were subjected to 30 min ischemia followed by reperfusion. The reperfusion injuries were histologically evaluated at 24 h after reperfusion by measuring the infarcted area relative to the area at risk (FIG. 9). Fifteen minutes prior to reperfusion, one group of rats received intravenous (iv) injection of the recombinant Shh homolog ligand (N-ShhH, 25 μg·kg^−1), the second group received N-Shh and the Shh receptor (patch/smoothened) antagonist cyclopamine (N-Shh+Ccl, 30 μmol/L) and the third one the vehicle (control). […] Considering that the cardio-protective effects are observed within a short time after reperfusion (i.e. <24 h), it is unlikely that they are mediated by a neoangiogenesis and/or mobilization of progenitor cells (Kusano K F, Pola R, Murayama T, Curry C, Kawamoto A, Iwakura A, Shintani S, Ii M, Asai J, Tkebuchava T, Thorne T, Takenaka H, Aikawa R, Goukassian D, von Samson P, Hamada H, Yoon Y S, Silver M, Eaton E, Ma H, Heyd L, Kearney M, Munger W, Porter J A, Kishore R and Losordo D W. Sonic hedgehog myocardial gene therapy: tissue repair through transient reconstitution of embryonic signaling. Nat Med. 2005; 11:1197-204. […]

[5] = test system: rat model of ischemia reperfusion; assay: Left ventricular fibrosis, Masson trichrome histology 24 h after reperfusion; assay type: in vivo
Experimental: Thin sections (5 μm) were prepared from the rat left ventricles and stained with Haematoxylin-Eosin (HE) and Masson trichrome (MT) for light microscopy (10×). The thickening of the myocardium was estimated on the HE-stained heart sections, and the presence of collagen was analyzed on the MT-stained ventricle sections.

[6] = test system: rat ventricular cardiomyocytes; assay: Action potential recording, whole-cell patch clamp; assay type: cell-based; conditions: for effect on APD reduction induced by N-Shh: glibenclamide 1 μM acute, L-NNA, ODQ
Experimental: Whole-cell patch-clamp experiments were performed at room temperature (22-24° C.) with an Axopatch 200B (Axon instrument, Burlingham, Calif., USA). Patch pipettes had resistance of 2 MΩ. Currents were normalized to the cell membrane capacitance (pA/pF). Series resistances were compensated before recordings.
To record APs, pipettes solution contained (in mM): KCl (130), HEPES (25), ATP(Mg) (3), GTP(Na) (0.4), EGTA (0.5); pH 7.2 (KOH). Bathing solution contained (in mmol/L): NaCl (135), MgCl2 (1), KCl (4), Glucose (11), HEPES (2), CaCl2 (1.8); pH 7.4 (NaOH). APs were elicited by 0.2 ms current injection of supra-threshold intensity. During experiments, cells were stimulated by trains of 30 stimuli at 0.5 Hz.

[7] = biological target: T1, ATP-dependent potassium current (IKATP) (Rattus norvegicus, UniProt P70673+Q63563); assay: Glibenclamide-sensitive K+ current (IKATP), voltage clamp; assay type: cell-based
T1 construct: endogenous in cells; host or cells: isolated adult rat ventricular cardiomyocytes
T1 sequence (P70673 whole entry): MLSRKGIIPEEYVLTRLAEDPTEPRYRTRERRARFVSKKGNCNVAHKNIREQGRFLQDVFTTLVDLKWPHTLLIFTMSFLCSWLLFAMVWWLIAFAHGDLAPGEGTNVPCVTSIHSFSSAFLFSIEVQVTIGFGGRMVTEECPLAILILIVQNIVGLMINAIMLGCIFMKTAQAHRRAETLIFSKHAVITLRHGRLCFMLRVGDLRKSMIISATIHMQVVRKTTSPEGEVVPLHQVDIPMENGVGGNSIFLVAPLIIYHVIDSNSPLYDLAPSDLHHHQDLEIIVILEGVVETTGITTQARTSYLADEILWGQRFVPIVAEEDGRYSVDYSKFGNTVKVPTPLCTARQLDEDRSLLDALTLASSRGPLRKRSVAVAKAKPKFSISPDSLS
T1 sequence (Q63563 whole entry): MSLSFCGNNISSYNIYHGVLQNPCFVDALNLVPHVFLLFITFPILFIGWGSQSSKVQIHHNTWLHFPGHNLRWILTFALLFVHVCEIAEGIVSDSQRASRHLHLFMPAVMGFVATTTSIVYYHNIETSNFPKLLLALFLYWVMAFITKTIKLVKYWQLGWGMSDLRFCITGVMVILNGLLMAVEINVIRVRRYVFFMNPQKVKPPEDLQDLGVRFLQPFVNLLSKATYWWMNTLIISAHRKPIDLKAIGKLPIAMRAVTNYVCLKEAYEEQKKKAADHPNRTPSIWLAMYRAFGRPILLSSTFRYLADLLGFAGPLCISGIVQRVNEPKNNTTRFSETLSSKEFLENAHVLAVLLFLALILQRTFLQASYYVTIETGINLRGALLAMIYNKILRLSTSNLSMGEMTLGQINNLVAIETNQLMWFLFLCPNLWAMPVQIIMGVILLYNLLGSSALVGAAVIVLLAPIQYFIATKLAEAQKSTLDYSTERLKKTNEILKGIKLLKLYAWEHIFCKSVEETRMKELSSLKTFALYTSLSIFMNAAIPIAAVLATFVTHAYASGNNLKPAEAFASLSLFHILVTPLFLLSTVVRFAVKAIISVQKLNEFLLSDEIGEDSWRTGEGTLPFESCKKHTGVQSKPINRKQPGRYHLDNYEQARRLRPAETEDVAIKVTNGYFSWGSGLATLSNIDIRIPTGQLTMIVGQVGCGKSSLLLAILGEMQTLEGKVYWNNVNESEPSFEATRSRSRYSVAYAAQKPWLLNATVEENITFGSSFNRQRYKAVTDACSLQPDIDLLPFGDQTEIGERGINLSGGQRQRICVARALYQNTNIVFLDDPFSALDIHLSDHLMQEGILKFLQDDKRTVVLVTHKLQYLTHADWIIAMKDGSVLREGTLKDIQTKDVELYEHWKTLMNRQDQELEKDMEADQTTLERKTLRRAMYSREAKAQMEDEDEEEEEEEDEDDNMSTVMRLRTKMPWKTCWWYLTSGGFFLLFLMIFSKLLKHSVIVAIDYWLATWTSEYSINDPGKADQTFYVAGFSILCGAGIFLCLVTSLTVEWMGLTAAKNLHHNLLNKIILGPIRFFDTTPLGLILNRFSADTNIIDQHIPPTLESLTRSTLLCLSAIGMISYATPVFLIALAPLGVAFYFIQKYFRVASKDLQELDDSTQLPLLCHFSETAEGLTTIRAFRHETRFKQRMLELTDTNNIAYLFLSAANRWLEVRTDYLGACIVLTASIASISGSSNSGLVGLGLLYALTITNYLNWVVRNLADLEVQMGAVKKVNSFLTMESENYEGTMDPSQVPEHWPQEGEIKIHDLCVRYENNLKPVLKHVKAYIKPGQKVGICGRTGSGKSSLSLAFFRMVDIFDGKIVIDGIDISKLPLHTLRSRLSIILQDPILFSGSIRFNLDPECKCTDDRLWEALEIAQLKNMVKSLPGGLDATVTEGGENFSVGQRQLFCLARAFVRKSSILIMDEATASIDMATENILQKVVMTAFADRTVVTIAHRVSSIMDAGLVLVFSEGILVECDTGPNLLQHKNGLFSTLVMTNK

Structure (SMILES)	effect on the reduction in QTc interval after Shh injection (rats)	effect on reduction of cell shortening and Ca2+ transient amplitude induced by N-Shh [2]	effect on APD reduction induced by N-Shh [6]	effect on IKATP elicited by N-Shh [7]	other results
C[N+](C)(C)CCCCCC[N+](C)(C)C [hexamethonium]	identical				
CC1=C2C[C@H]3[C@@H](CC=C4C[C@@H](O)CC[C@@]43C)[C@@H]2CC[C@]12O[C@@H]1C[C@H](C)CN[C@H]1[C@H]2C [cyclopamine]	prevented	fully abolished			NO production (DAF fluorescence) vs control ([1]; cardiomyocytes incubated 4 h): no effect; effect on NO production induced by Shh-harboring MPs ([1]; pre-/co-incubation, cyclopamine 30 μM): prevented; effect on reduction of cell shortening and Ca2+ transient induced by shed membrane MPs ([2]; cyclopamine 30 μM): blocked; effect on N-Shh prevention of QTc enlargement ([3]; cyclopamine injected in addition to N-Shh): No beneficial effect; also recorded: abolished; effect on Shh reduction of ventricular arrhythmic events ([3]; cyclopamine with N-Shh): abolished; effect on cardioprotective (infarct-reducing) effect of N-Shh [4]: fully abolished; also recorded: fully prevented; effect on Shh prevention of fibrosis [5]: abolished
N=C(NCCC[C@H](N)C(=O)O)N[N+](=O)[O-] [L-NNA, N^ω-nitro-L-arginine]		fully abolished	blunted	blocked	effect on N-Shh-induced NO production ([1]; co-incubation with N-Shh, L-NNA 100 μM, LY 25 μM): prevented
O=c1onc2cnc3ccccc3n12 [ODQ, 1H-[1.2.4]oxadiazolo[4.3-a]quinoxalin-1-one]			blunted	blocked	
COc1ccc(Cl)cc1C(=O)NCCc1ccc(S(=O)(=O)NC(=O)NC2CCCCC2)cc1 [glibenclamide]	prevented		prevented		effect on APD in the absence of N-Shh treatment ([6]; acute application): no effect
